Our source for the IC50 values is patent publication US20240092784A1, “CONDENSED HETEROCYCLIC COMPOUND” (NISSAN CHEMICAL CORPORATION, priority 2020, published 2024).

Structures can show the parent of a compound that is named as a salt. Where two headings read alike, the source gives them in different places.

The test addresses human SPR (Homo sapiens (Human), UniProt P35270). The test is described as follows: Evaluation Example 2: Measurement of human SPR inhibitory activity (seven concentrations, sepiapterin absorbance at 420 nm). Format: biochemical. In a few lines: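 Reactions ran 240 min at room temperature in 100 mM Tris-HCl pH 7.5 with 0.01% BSA. They contained tag-cleaved, E. coli-expressed full-length human SPR (diluted to 150 ng/mL), seven compound concentrations from 0.14 to 100 nM, and sepiapterin/NADPH added as a 120 μM/160 μM solution. Inhibition was calculated from sepiapterin absorbance at 420 nm.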

Setting [1] is: Evaluation Example 2, seven concentrations 0.14 nM to 100 nM, 240 minutes at room temperature, read-out: IC50.
The mark [2] stands for this setting: sepiapterin absorbance, Table 41, read-out: concentration at 50% inhibition of human SPR (IC50).

human SPR, sequence (P35270 whole entry): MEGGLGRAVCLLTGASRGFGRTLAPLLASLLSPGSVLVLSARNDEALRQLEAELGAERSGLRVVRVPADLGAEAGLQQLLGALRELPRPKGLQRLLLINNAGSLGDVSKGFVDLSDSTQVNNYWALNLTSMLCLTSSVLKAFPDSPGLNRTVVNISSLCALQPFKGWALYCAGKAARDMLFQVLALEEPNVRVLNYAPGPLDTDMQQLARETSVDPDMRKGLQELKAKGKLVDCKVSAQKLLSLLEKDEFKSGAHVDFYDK

On to `CC(=O)N1CCC(C)(/C=C/c2cnn3c(O)c(C(=O)NC4CC4)c(=O)n(CC(C)C)c23)CC1` [Synthesis Example 245, (E)-3-(2-(1-Acetyl-4-methylpiperidin-4-yl)vinyl)-N-cyclopropyl-7-hydroxy-4-isobutyl-5-oxo-4,5-dihydropyrazolo[1,5-a]pyrimidine-6-carboxamide], for which the IC50 under setting [1] is 1.08 nM. With `Cc1nn2c(O)c(C(=O)NC3CC3)c(=O)n(CC(C)C)c2c1/C=C/C(=O)N1CC[C@H](C#N)C1` [Synthesis Example 688, (S,E)-3-(3-(3-Cyanopyrrolidin-1-yl)-3-oxoprop-1-en-1-yl)-N-cyclopropyl-7-hydroxy-4-isobutyl-2-methyl-5-oxo-4,5-dihydropyrazolo[1,5-a]pyrimidine-6-carboxamide], under setting [2], the IC50 came out at 0.91 nM. Take `COC[C@H]1CCN(C(=O)/C=C/c2c(C)nn3c(O)c(C(=O)NC4CC4)c(=O)n(CC(C)C)c23)C1` [Synthesis Example 620, (S,E)-N-Cyclopropyl-7-hydroxy-4-isobutyl-3-(3-(3-(methoxymethyl)pyrrolidin-1-yl)-3-oxoprop-1-en-1-yl)-2-methyl-5-oxo-4,5-dihydropyrazolo[1,5-a]pyrimidine-6-carboxamide]: the IC50 under setting [1] was 1.17 nM. Still for that read-out and setting: the same measure for `COC(C)(C)Cn1c(=O)c(C(=O)NC2CC2)c(O)n2nc(C(N)=O)cc12` [Synthesis Example 275, N6-Cyclopropyl-7-hydroxy-4-(2-methoxy-2-methylpropyl)-5-oxo-4,5-dihydropyrazolo[1,5-a]pyrimidine-2,6-dicarboxamide]: 0.68 nM. Same read-out and setting: the result for `CC(C)Cn1c(=O)c(C(=O)NC2CC2)c(O)n2ncc(/C=C/c3cnccn3)c12` [Synthesis Example 236, (E)-N-Cyclopropyl-7-hydroxy-4-isobutyl-5-oxo-3-(2-(pyrazin-2-yl)vinyl)-4,5-dihydropyrazolo[1,5-a]pyrimidine-6-carboxamide] reads 0.97 nM; that for `CC(C)Cn1c(=O)c(C(=O)NC2CC2)c(O)n2ncc(C(=O)NCc3ccc(F)cc3F)c12` [Synthesis Example 234, N6-Cyclopropyl-N3-(2,4-difluorobenzyl)-7-hydroxy-4-isobutyl-5-oxo-4,5-dihydropyrazolo[1,5-a]pyrimidine-3,6-dicarboxamide], 1.41 nM. Still for that read-out and setting: the result for `Nc1ncccc1-c1cc2n(CC3CCOCC3)c(=O)c(C(=O)NC3CC3)c(O)n2n1` [Synthesis Example 290, 2-(2-Aminopyridin-3-yl)-N-cyclopropyl-7-hydroxy-5-oxo-4-((tetrahydro-2H-pyran-4-yl)methyl)-4,5-dihydropyrazolo[1,5-a]pyrimidine-6-carboxamide] reads 0.93 nM; that for `CC(C)Cn1c(=O)c(C(=O)N[C@@H](C)C(F)(F)F)c(O)n2nc(N)c(/C=C/C(=O)N3CCC(F)(F)CC3)c12` [Synthesis Example 421, (S,E)-2-Amino-3-(3-(4,4-difluoropiperidin-1-yl)-3-oxoprop-1-en-1-yl)-7-hydroxy-4-isobutyl-5-oxo-N-(1,1,1-trifluoropropan-2-yl)-4,5-dihydropyrazolo[1,5-a]pyrimidine-6-carboxamide hydrochloride], 0.77 nM; that for `Cc1nn2c(O)c(C(=O)NC3CC3)c(=O)n(CC(C)C)c2c1/C=C/C(=O)N1CCC2CC21` (racemic) [compound 609, (E)-3-(3-(2-Azabicyclo[3.1.0]hexan-2-yl)-3-oxoprop-1-en-1-yl)-N-cyclopropyl-7-hydroxy-4-isobutyl-2-methyl-5-oxo-4,5-dihydropyrazolo[1,5-a]pyrimidine-6-carboxamide (racemate)], 1.23 nM. `CC(C)Cn1c(=O)c(C(=O)NC2CC2)c(O)n2ncc(/C=C/C(=O)N3CCC[C@@H]3C(C)C)c12` [compound 599, (R,E)-N-Cyclopropyl-7-hydroxy-4-isobutyl-3-(3-(2-isopropylpyrrolidin-1-yl)-3-oxoprop-1-en-1-yl)-5-oxo-4,5-dihydropyrazolo[1,5-a]pyrimidine-6-carboxamide]: the IC50 under setting [1] is 1.27 nM.

In the case of `Cc1nn2c(O)c(C(=O)NC3CC3)c(=O)n(CC(C)C)c2c1/C=C/C(=O)N1[C@H](C)COC[C@@H]1C` [Synthesis Example 641, N-Cyclopropyl-3-((E)-3-(cis-3,5-dimethylmorpholino)-3-oxoprop-1-en-1-yl)-7-hydroxy-4-isobutyl-2-methyl-5-oxo-4,5-dihydropyrazolo[1,5-a]pyrimidine-6-carboxamide], under setting [1], the IC50 stood at 0.89 nM. Same read-out and setting: the same measure for `CC(C)Cn1c(=O)c(C(=O)NC2CC2)c(O)n2ncc(/C=C/C(=O)N3CCC(C)(O)CC3)c12` [compound 467, (E)-N-Cyclopropyl-7-hydroxy-3-(3-(4-hydroxy-4-methylpiperidin-1-yl)-3-oxoprop-1-en-1-yl)-4-isobutyl-5-oxo-4,5-dihydropyrazolo[1,5-a]pyrimidine-6-carboxamide]: 0.79 nM; for `CCc1nn2c(O)c(C(=O)NC3CC3)c(=O)n(CC(C)C)c2c1/C=C/C(=O)N1CCOC[C@@H]1C` [Synthesis Example 653, (S,E)-N-Cyclopropyl-2-ethyl-7-hydroxy-4-isobutyl-3-(3-(3-methylmorpholino)-3-oxoprop-1-en-1-yl)-5-oxo-4,5-dihydropyrazolo[1,5-a]pyrimidine-6-carboxamide]: 0.74 nM; for `CC(C)(C)Cn1c(=O)c(C(=O)NC2CC2)c(O)n2nc(-c3[nH]ncc3C(=O)NCC3CCOCC3)cc12` [Synthesis Example 315, N-Cyclopropyl-7-hydroxy-4-neopentyl-5-oxo-2-(4-(((tetrahydro-2H-pyran-4-yl)methyl)carbamoyl)-1H-pyrazol-5-yl)-4,5-dihydropyrazolo[1,5-a]pyrimidine-6-carboxamide hydrochloride]: 1.11 nM.

As for `COC(C)(C)Cn1c(=O)c(C(=O)NC2CC2)c(O)n2nc(-c3cccnc3N)cc12` [Synthesis Example 271, 2-(2-Aminopyridin-3-yl)-N-cyclopropyl-7-hydroxy-4-(2-methoxy-2-methylpropyl)-5-oxo-4,5-dihydropyrazolo[1,5-a]pyrimidine-6-carboxamide], the IC50 under setting [1] came out at 1.08 nM.

Take `Cc1nn2c(O)c(C(=O)NC3CC3)c(=O)n(CC(C)C)c2c1/C=C/C(=O)N1CCCC12CCCN(C(=O)OC(C)(C)C)C2` (stereo not drawn) [Synthesis Example 660, Tert-butyl (E)-1-(3-(6-(cyclopropylcarbamoyl)-7-hydroxy-4-isobutyl-2-methyl-5-oxo-4,5-dihydropyrazolo[1,5-a]pyrimidin-3-yl)acryloyl)-1,7-diazaspiro[4.5]decane-7-carboxylate]: the IC50 under setting [1] worked out at 3.97 nM. The same measure, in the same setting: the result for `CC(C)Cn1c(=O)c(C(=O)NC2CC2)c(O)n2ncc(/C=C/c3cccnc3)c12` [Synthesis Example 247, (E)-N-Cyclopropyl-7-hydroxy-4-isobutyl-5-oxo-3-(2-(pyridin-3-yl)vinyl)-4,5-dihydropyrazolo[1,5-a]pyrimidine-6-carboxamide] reads 0.94 nM; that for `CC(C)Cn1c(=O)c(C(=O)NC2CC2)c(O)n2ncc(/C=C/C(=O)N3CCC[C@H]3C(F)(F)F)c12` [compound 484, (S,E)-N-Cyclopropyl-7-hydroxy-4-isobutyl-5-oxo-3-(3-oxo-3-(2-(trifluoromethyl)pyrrolidine-1-yl)prop-1-en-1-yl)-4,5-dihydropyrazolo[1,5-a]pyrimidine-6-carboxamide], 1.2 nM. The same measure, in the same setting: the same measure for `CC(C)(C)Cn1c(=O)c(C(=O)NC2CC2)c(O)n2nc3c(c12)CN(CC1CCOCC1)C(=O)N3` [Synthesis Example 409, N-Cyclopropyl-8-hydroxy-5-neopentyl-2,6-dioxo-3-((tetrahydro-2H-pyran-4-yl)methyl)-1,2,3,4,5,6-hexahydropyrazolo[1,5-a:3,4-d′]dipyrimidine-7-carboxamide]: 0.75 nM. With `Cc1nn2c(O)c(C(=O)NC3CC3)c(=O)n(CC(C)(C)C)c2c1/C=C/C(=O)N1CCN(C2CC(F)(F)C2)CC1` [Synthesis Example 692, (E)-N-Cyclopropyl-3-(3-(4-(3,3-difluorocyclobutyl)piperazin-1-yl)-3-oxoprop-1-en-1-yl)-7-hydroxy-2-methyl-4-neopentyl-5-oxo-4,5-dihydropyrazolo[1,5-a]pyrimidine-6-carboxamide], under setting [2], the IC50 stood at 0.8 nM. For the compound `CC(C)Cn1c(=O)c(C(=O)NC2CC2)c(O)n2ncc(/C=C/C(=O)N3CCN(C4CC(F)(F)C4)CC3)c12` [compound 460, (E)-N-Cyclopropyl-3-(3-(4-(3,3-difluorocyclobutyl)piperazin-1-yl)-3-oxoprop-1-en-1-yl)-7-hydroxy-4-isobutyl-5-oxo-4,5-dihydropyrazolo[1,5-a]pyrimidine-6-carboxamide], the IC50 under setting [1] stood at 1.24 nM. Same read-out and setting: the result for `CC(C)Cn1c(=O)c(C(=O)NC2CC2)c(O)n2ncc(/C=C/C(=O)N3CCC(F)(F)CC3)c12` [compound 464, (E)-N-Cyclopropyl-3-(3-(4,4-difluoropiperidin-1-yl)-3-oxoprop-1-en-1-yl)-7-hydroxy-4-isobutyl-5-oxo-4,5-dihydropyrazolo[1,5-a]pyrimidine-6-carboxamide] reads 0.8 nM. Same read-out and setting: the same measure for `CC(C)(C)Cn1c(=O)c(C(=O)NC2CC2)c(O)n2nc(-c3[nH]ncc3C(=O)N3CCC(F)(F)CC3)cc12` [Synthesis Example 313, N-Cyclopropyl-2-(4-(4,4-difluoropiperidine-1-carbonyl)-1H-pyrazol-5-yl)-7-hydroxy-4-neopentyl-5-oxo-4,5-dihydropyrazolo[1,5-a]pyrimidine-6-carboxamide hydrochloride]: 1.15 nM. Turning to `CC(C)Cn1c(=O)c(C(=O)NC2CC2)c(O)n2ncc(/C=C/C(=O)N3CCc4cc(F)ccc43)c12` [Synthesis Example 731, (E)-N-Cyclopropyl-3-(3-(5-fluoroindolin-1-yl)-3-oxoprop-1-en-1-yl)-7-hydroxy-4-isobutyl-5-oxo-4,5-dihydropyrazolo[1,5-a]pyrimidine-6-carboxamide], the IC50 under setting [2] worked out at 2.89 nM.
